Literature values in patent US9707278B2, “Methods of modulating immune responses by modifying Akt3 bioactivity” (Augusta University Research Institute, Inc., priority 2014, dated 2017).

Legend:
p70S6K = p70S6K (Homo sapiens, UniProt P23443)
PKA = PKA (Homo sapiens, UniProt P17612)
[1] = human, in vivo
[2] = patients with advanced solid tumors
[3] = system: 250 other protein kinases
[4] = patients with advanced solid tumors; remark: listed apart in the source

p70S6K, sequence (P23443 whole entry): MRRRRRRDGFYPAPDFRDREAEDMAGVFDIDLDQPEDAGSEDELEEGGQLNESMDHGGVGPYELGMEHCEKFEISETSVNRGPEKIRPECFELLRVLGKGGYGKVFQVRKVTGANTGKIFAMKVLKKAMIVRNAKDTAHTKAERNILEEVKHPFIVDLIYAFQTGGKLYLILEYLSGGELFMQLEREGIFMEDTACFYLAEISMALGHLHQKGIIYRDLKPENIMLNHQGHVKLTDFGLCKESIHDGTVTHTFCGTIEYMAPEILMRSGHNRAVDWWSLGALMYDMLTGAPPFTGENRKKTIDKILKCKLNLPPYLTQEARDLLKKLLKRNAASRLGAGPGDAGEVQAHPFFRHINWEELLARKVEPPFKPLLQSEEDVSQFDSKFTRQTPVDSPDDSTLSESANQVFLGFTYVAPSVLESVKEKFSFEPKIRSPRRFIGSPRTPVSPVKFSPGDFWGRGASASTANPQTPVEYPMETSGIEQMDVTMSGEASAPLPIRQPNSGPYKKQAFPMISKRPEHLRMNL

Clc1ccc(C2(c3ccc(-c4cn[nH]c4)cc3)CCNCC2)cc1 [AT7867]
IC50 (p70S6K): 85 nM | IC50 (PKA): 20 nM

NC1(C(=O)N[C@@H](CCO)c2ccc(Cl)cc2)CCN(c2ncnc3[nH]ccc23)CC1 [AZD5363]
tolerability [1]: generally well tolerated

CC(C)NC[C@@H](C(=O)N1CCN(c2ncnc3c2[C@H](C)C[C@H]3O)CC1)c1ccc(Cl)cc1 [GDC-0068]
single agent maximum tolerated dose [2]: 600 mg

NC1(c2ccc(-c3nc4ccn5c(=O)[nH]nc5c4cc3-c3ccccc3)cc2)CCC1 [MK-2206 2HCl]
inhibitory activities against 250 other protein kinases [3]: no inhibitory activities

NC1(c2ccc(-c3nc4ccn5c(=O)[nH]nc5c4cc3-c3ccccc3)cc2)CCC1 [MK-2206]
dose-limiting toxicities ([4]; 30, 60, 75, or 90 mg on alternate days): skin rash and stomatitis | MTD ([4]; oral, alternate days): 60 mg
